Results on 2 compounds are retold here after patent US7332475B2 (priority 2003, dated 2008).

Assay [1] concerns BCV Kakegawa strain. Put plainly: Contact of BCV with catechin (EGCg) before inoculation of MDBK cells, TCID50 by cell denaturation effect. The format is cell-based, bovine coronavirus. The following applies: 1 mg/ml EGCg. On the procedure:
BCV Kakegawa strain with a 50% tissue culture infectious dose (TCID50) of 1.8×10^8/ml and 1 mg/ml of catechin (EGCg: procured from Pharma Foods International Co., Ltd.) were contacted at 25° C. or 37° C. for 30, 60 or 90 minutes respectively, and a 10-fold dilution series was then produced with MEM.
After the cells were washed three times with PBS, 5% FBS-containing MEM was added in an amount of 500 μl/well, and incubation was conducted for 72 hours. Subsequently, the cells infected with the virus were identified with a cell denaturation effect to measure TCID50.

The test system of assay [2] is BVDV(ATCC VR524). In words: Contact of BVDV with catechin (EGCg) before inoculation of MDBK cells, detection of BVDV-derived DNA by RT-PCR. Type of assay: cell-based, bovine viral diarrhea virus. The following applies: 1 mg/ml catechin (EGCg), incubation 6 days. On the procedure: The cells were washed three times with PBS, and 5% FBS-containing MEM was added thereto. Incubation was further conducted at 37° C. for 6 days.
After completion of the incubation, a DNA derived from BVDV in the MDBK cells was detected by RT-PCR to confirm whether or not the cells were infected with the virus.

The subject of assay [3] is bovine coronavirus (BCV) Kakegawa strain and Mebus strain. Particulars: 1, 5, 10, 20 or 30 mmol/l reduced glutathione; MDBK cells; supernatant at 24, 48, 72 and 96 hours; FIGS. 1 and 2.
Experimental: Madin Darby Bovin Kidney (MDBK) cells (ATCC CCL-22) was incubated with a 48-well plate such that the cells were 90% confluent, and then washed twice with a phosphate buffered saline (PBS).
Each of bovine coronavirus (BCV) Kakegawa strain (procured from Nippon Zenyaku Kogyo Co., Ltd.) [2.56 to 256 hemagglutinin (HA) titer/25 μl] and Mebus strain (ATCC VR-874) (0.064 and 0.64 HA titers/25 μl) at various concentrations, these strains being diluted with fetal bovine serum (FBS)-free Minimum Essential Medium (MEM) [Science, 122, 501 (1952)], was inoculated in an amount of 200 μl/well, and incubated at 37° C. for 90 minutes while moving a plate at intervals of 15 minutes. After the culture solution was washed three times with PBS, 500 μl/well of 5% FBS-containing MEM containing 1, 5, 10, 20 or 30 mmol/l of reduced glutathione was added thereto, and the mixture was further incubated at 37° C. During the incubation, 100 μl of the supernatant was recovered in 24, 48, 72 and 96 hours to measure a hemagglutinin (HA) titer.
The HA titer was measured by adding 25 μl of PBS containing 0.03% BSA to each well, adding 25 μl of the BCV culture supernatant thereto by multiple dilution, adding 0.8% mouse immobilization red cells thereto and measuring an agglutination reaction of red cells after 3 hours. […]

A value given as a limit tells only on which side of the number the result lay.

For the compound `O=C(O[C@@H]1Cc2c(O)cc(O)cc2O[C@@H]1c1cc(O)c(O)c(O)c1)c1cc(O)c(O)c(O)c1` [EGCg, epigallocatechin gallate], the “10^(n) TCID50/ml, EGCg-treated virus” value is reported as 4.25 10^(n) TCID50/ml in assay [1] (contact 30 min, temperature cell empty (row between 25° C. and 37° C.), control 8.25); 5.75 10^(n) TCID50/ml in assay [1] (contact at 25° C. for 30 min, control 7.25); <2.75 10^(n) TCID50/ml in assay [1] (contact at 37° C. for 60 min, control 7.75); <2.00 10^(n) TCID50/ml in assay [1] (contact at 37° C. for 90 min, control 6.50). Further, the “BVDV-derived DNA in MDBK cells by RT-PCR” value in assay [2] (contact at 37° C. for 30, 60 or 90 minutes) is reported as “became undetected depending on the catechin treatment time”; in assay [2] (contact at 37° C. for 90 minutes), “not detected at all”.

Turning to `N[C@@H](CCC(=O)N[C@@H](CS)C(=O)NCC(=O)O)C(=O)O` [reduced glutathione, γ-L-Glu-L-Cys-Gly], the “growth of coronavirus (hemagglutinin (HA) titer of culture supernatant)” value in assay [3] is “effect of inhibiting growth of coronavirus”.
